Experimental data reported in the NIST ThermoML archive (doi:10.1016/j.tca.2015.02.020).

Assay: molar heat capacity at constant pressure; xn = mol fraction of the nth substance listed
Conditions: 101 kPa, Small sample (50 mg) DSC

CC(O)CN (stereo unspecified) [1-amino-2-propanol] + O
Conditions	molar heat capacity at constant pressure [J/K/mol]
126.79 K, Glass, x1 = 0.15	27.11
126.79 K, Glass, x1 = 0.16	28.24
126.94 K, Glass, x1 = 0.19	28.86
127.55 K, Glass, x1 = 0.19	28.57
127.56 K, Glass, x1 = 0.26	32.53
127.57 K, Glass, x1 = 0.26	32.86
127.69 K, Glass, x1 = 0.15	27.64
127.71 K, Glass, x1 = 0.16	27.96
127.73 K, Glass, x1 = 0.68	51.16
127.76 K, Glass, x1 = 0.68	51.16
130.83 K, Glass, x1 = 0.19	29.15
130.83 K, Glass, x1 = 0.26	33.19
130.96 K, Glass, x1 = 0.15	28.71
130.98 K, Glass, x1 = 0.16	28.51
131 K, Glass, x1 = 0.68	52.86
131.45 K, Glass, x1 = 0.15	28.71
131.45 K, Glass, x1 = 0.16	30.14
131.61 K, Glass, x1 = 0.19	30.31
132.23 K, Glass, x1 = 0.26	34.17
132.42 K, Glass, x1 = 0.68	52.29
134.1 K, Glass, x1 = 0.19	29.73
134.1 K, Glass, x1 = 0.26	33.85
134.24 K, Glass, x1 = 0.15	29.5
134.25 K, Glass, x1 = 0.16	29.05
134.27 K, Glass, x1 = 0.68	54
136.13 K, Glass, x1 = 0.15	30.3
136.13 K, Glass, x1 = 0.16	31.77
136.28 K, Glass, x1 = 0.19	32.04
136.9 K, Glass, x1 = 0.26	35.49
137.09 K, Glass, x1 = 0.68	54.57
140.66 K, Glass, x1 = 0.19	31.17
140.66 K, Glass, x1 = 0.26	35.49
140.8 K, Glass, x1 = 0.15	30.83
140.8 K, Glass, x1 = 0.16	33.39
140.81 K, Glass, x1 = 0.15	31.63
140.81 K, Glass, x1 = 0.16	30.41
140.83 K, Glass, x1 = 0.68	56.27
140.96 K, Glass, x1 = 0.19	32.9
141.59 K, Glass, x1 = 0.26	36.8
141.77 K, Glass, x1 = 0.68	55.7
143.95 K, Glass, x1 = 0.19	31.75
143.95 K, Glass, x1 = 0.26	36.15
144.09 K, Glass, x1 = 0.15	31.63
144.1 K, Glass, x1 = 0.16	30.95
144.11 K, Glass, x1 = 0.68	57.41
145.5 K, Glass, x1 = 0.16	34.75
145.65 K, Glass, x1 = 0.19	34.35
146.28 K, Glass, x1 = 0.26	38.12
146.29 K, Glass, x1 = 0.15	33.22
146.45 K, Glass, x1 = 0.68	56.84
150.19 K, Glass, x1 = 0.16	36.11
150.34 K, Glass, x1 = 0.19	35.5
150.53 K, Glass, x1 = 0.19	33.48
150.53 K, Glass, x1 = 0.26	38.12
150.67 K, Glass, x1 = 0.15	33.22
150.68 K, Glass, x1 = 0.16	32.31
150.69 K, Glass, x1 = 0.68	59.68
150.97 K, Glass, x1 = 0.26	39.1
150.99 K, Glass, x1 = 0.15	34.29
151.15 K, Glass, x1 = 0.68	57.98
153.82 K, Glass, x1 = 0.19	34.06
153.82 K, Glass, x1 = 0.26	39.1
153.96 K, Glass, x1 = 0.15	34.02
153.98 K, Glass, x1 = 0.16	33.12
153.98 K, Glass, x1 = 0.68	60.82
155.68 K, Glass, x1 = 0.15	35.88
155.68 K, Glass, x1 = 0.16	37.74
155.68 K, Glass, x1 = 0.19	36.94
155.68 K, Glass, x1 = 0.26	40.42
155.84 K, Glass, x1 = 0.68	59.11
160.38 K, Glass, x1 = 0.16	40.45
160.38 K, Glass, x1 = 0.19	38.97
160.38 K, Glass, x1 = 0.26	42.39
160.4 K, Glass, x1 = 0.15	39.07
160.41 K, Glass, x1 = 0.19	35.79
160.41 K, Glass, x1 = 0.26	41.07
160.54 K, Glass, x1 = 0.68	60.82
160.55 K, Glass, x1 = 0.15	35.88
160.56 K, Glass, x1 = 0.16	34.48
160.57 K, Glass, x1 = 0.68	63.09
163.7 K, Glass, x1 = 0.19	36.66
163.7 K, Glass, x1 = 0.26	42.39
163.84 K, Glass, x1 = 0.15	37.74
163.85 K, Glass, x1 = 0.16	35.57
163.85 K, Glass, x1 = 0.68	64.8
165.08 K, Glass, x1 = 0.19	42.72
165.08 K, Glass, x1 = 0.26	45.68
165.25 K, Glass, x1 = 0.68	64.8
170.29 K, Glass, x1 = 0.19	40.7
170.3 K, Glass, x1 = 0.26	46
170.45 K, Glass, x1 = 0.68	68.21
173.75 K, Glass, x1 = 0.68	73.89
183.93 K, Liquid, x1 = 0.26	85.44
184.09 K, Liquid, x1 = 0.68	124.48
188.66 K, Liquid, x1 = 0.26	85.11
188.82 K, Liquid, x1 = 0.68	125.62
190.11 K, Liquid, x1 = 0.19	83.13
190.11 K, Liquid, x1 = 0.26	88.06
190.26 K, Liquid, x1 = 0.15	76.81
190.26 K, Liquid, x1 = 0.68	135.28
190.27 K, Liquid, x1 = 0.16	77.92
193.38 K, Liquid, x1 = 0.26	84.78
193.42 K, Liquid, x1 = 0.19	81.97
193.42 K, Liquid, x1 = 0.26	87.74
193.54 K, Liquid, x1 = 0.68	126.75
193.57 K, Liquid, x1 = 0.15	76.28
193.58 K, Liquid, x1 = 0.16	77.11
193.58 K, Liquid, x1 = 0.68	135.28
198.11 K, Liquid, x1 = 0.16	79.01
198.11 K, Liquid, x1 = 0.26	84.78
198.13 K, Liquid, x1 = 0.15	73.89
198.27 K, Liquid, x1 = 0.68	126.75
200.05 K, Liquid, x1 = 0.19	80.53
200.05 K, Liquid, x1 = 0.26	87.74
200.19 K, Liquid, x1 = 0.15	76.02
200.19 K, Liquid, x1 = 0.68	136.41
200.2 K, Liquid, x1 = 0.16	76.29
202.84 K, Liquid, x1 = 0.19	80.53
202.84 K, Liquid, x1 = 0.26	85.44
202.85 K, Liquid, x1 = 0.16	79.28
202.87 K, Liquid, x1 = 0.15	74.69
203 K, Liquid, x1 = 0.68	126.75
203.35 K, Liquid, x1 = 0.19	80.24
203.36 K, Liquid, x1 = 0.26	88.06
203.5 K, Liquid, x1 = 0.15	75.75
203.5 K, Liquid, x1 = 0.68	136.98
203.51 K, Liquid, x1 = 0.16	76.29
207.57 K, Liquid, x1 = 0.19	80.82
207.57 K, Liquid, x1 = 0.26	86.42
207.58 K, Liquid, x1 = 0.16	79.82
207.6 K, Liquid, x1 = 0.15	75.49
